# Measured values taken from BindingDB's records for doi:10.1210/endo.135.6.7988476 (Mcgill University, 1994).
# Bridge positions count the residues as written; N and C are the ends. Square brackets hold non-standard residues; d marks the D form. Peptide text beside a SMILES is read from it. * marks the point of attachment. NH(1-naphthylmethyl) = c1ccc2c(CN*)cccc2c1; Phe(4-Cl) = N[C@@H](Cc1ccc(Cl)cc1)C(=O)O; dPhe(4-Cl) = N[C@H](Cc1ccc(Cl)cc1)C(=O)O; 2Nal = N[C@@H](Cc1ccc2ccccc2c1)C(=O)O; d1Nal = N[C@H](Cc1cccc2ccccc12)C(=O)O; d2Nal = N[C@H](Cc1ccc2ccccc2c1)C(=O)O; Abu = CC[C@H](N)C(=O)O
# Key:
# [1] = target: Somatostatin receptor type 3 (Homo sapiens, UniProt P32745)
# [2] = target: Somatostatin receptor type 1 (Homo sapiens, UniProt P30872)
# [3] = target: Somatostatin receptor type 2 (Homo sapiens, UniProt P30874)
# [4] = target: Somatostatin receptor type 4 (Homo sapiens, UniProt P31391)
# Sequence of Somatostatin receptor type 4 (P31391 whole entry): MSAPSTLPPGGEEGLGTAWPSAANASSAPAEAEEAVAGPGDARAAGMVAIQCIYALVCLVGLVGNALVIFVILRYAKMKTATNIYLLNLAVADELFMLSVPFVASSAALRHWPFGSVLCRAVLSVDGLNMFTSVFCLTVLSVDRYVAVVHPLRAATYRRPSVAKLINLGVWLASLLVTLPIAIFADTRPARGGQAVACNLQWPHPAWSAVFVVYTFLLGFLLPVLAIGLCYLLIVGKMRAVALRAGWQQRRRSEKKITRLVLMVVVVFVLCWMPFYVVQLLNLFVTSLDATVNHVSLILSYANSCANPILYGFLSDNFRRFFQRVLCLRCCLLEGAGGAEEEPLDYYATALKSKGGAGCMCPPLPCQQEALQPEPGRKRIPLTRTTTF
# Sequence of Somatostatin receptor type 2 (P30874 whole entry): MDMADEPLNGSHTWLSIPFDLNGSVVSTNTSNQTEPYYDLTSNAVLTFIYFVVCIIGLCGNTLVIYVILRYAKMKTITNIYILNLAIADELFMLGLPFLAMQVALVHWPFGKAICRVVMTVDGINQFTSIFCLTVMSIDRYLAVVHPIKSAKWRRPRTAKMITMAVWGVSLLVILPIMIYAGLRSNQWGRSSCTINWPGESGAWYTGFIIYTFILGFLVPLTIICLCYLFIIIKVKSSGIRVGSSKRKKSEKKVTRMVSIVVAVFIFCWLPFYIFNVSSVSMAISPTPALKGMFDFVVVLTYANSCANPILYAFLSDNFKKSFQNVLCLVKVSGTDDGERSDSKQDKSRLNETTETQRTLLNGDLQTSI
# Sequence of Somatostatin receptor type 3 (P32745 whole entry): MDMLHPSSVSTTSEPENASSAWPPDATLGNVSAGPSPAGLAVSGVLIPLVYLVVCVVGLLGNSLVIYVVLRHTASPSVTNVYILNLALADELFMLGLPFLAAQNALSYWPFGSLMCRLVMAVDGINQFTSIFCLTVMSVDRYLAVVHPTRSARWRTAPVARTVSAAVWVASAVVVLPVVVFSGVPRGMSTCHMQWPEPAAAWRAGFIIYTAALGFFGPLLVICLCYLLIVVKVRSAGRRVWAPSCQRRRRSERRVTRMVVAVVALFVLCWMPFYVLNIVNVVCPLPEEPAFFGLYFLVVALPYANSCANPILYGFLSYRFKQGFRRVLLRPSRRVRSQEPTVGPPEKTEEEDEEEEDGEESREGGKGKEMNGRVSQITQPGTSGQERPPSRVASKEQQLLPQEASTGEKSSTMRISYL
# Sequence of Somatostatin receptor type 1 (P30872 whole entry): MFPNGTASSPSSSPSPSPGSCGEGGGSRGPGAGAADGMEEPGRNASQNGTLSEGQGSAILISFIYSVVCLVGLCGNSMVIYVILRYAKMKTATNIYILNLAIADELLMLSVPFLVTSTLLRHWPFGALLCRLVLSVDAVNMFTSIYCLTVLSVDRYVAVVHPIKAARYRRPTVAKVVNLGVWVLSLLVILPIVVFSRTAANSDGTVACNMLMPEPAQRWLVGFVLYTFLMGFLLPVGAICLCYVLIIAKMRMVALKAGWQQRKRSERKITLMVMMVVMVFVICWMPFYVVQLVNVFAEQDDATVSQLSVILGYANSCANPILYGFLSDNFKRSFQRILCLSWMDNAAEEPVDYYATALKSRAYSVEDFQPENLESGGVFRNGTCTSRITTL
compound,measurement,setting,value
CC(C)[C@@H]1NC(=O)[C@H](CCCCN)NC(=O)[C@@H](Cc2c[nH]c3ccccc23)NC(=O)[C@H](Cc2ccc(O)cc2)NC(=O)[C@@H](C)N(C)C(=O)[C@H](Cc2ccccc2)NC1=O,Ki,[1],14.6 nM
same,Ki,[2],107 nM
CC(C)[C@@H]1NC(=O)[C@H](CCCCN)NC(=O)[C@@H](Cc2c[nH]c3ccccc23)NC(=O)[C@H](Cc2ccc(O)cc2)NC(=O)[C@@H](NC(=O)[C@H](N)Cc2ccc3ccccc3c2)CSSC[C@@H](C(=O)N[C@H](C(N)=O)[C@@H](C)O)NC1=O [3-(2-Naphtyl)-D-Ala-L-Cys(1)-L-Tyr-D-Trp-L-Lys-L-Val-L-Cys(1)-L-Thr-NH2],Ki,[1],43 nM
same,Ki,[3],1.8 nM
CC1NC(=O)C(CCCCN)NC(=O)C(Cc2c[nH]c3ccccc23)NC(=O)C(Cc2ccc(O)cc2)NC(=O)C(NC(=O)C(N)Cc2ccccc2)CSSCC(C(=O)NCc2cccc3ccccc23)NC1=O (configuration not stated) [BIM 23034] (H-FCYWKAC-{NH(1-naphthylmethyl)}; disulfide 2-7; configuration not given here),Ki,[1],7.7 nM
same,Ki,[4],27 nM
same,Ki,[3],2.7 nM
CC(C)[C@@H]1NC(=O)[C@H](CCCCN)NC(=O)[C@@H](Cc2c[nH]c3ccccc23)NC(=O)[C@H](Cc2ccc(O)cc2)NC(=O)[C@@H](NC(=O)[C@H](N)Cc2ccc3ccccc3c2)CSSC[C@@H](C(=O)N[C@@H](Cc2ccc3ccccc3c2)C(N)=O)NC1=O [BIM 23042] (H-[d2Nal]CY[dW]KVC[2Nal]-NH2; disulfide 2-7),Ki,[4],1000 nM
same,Ki,[3],0.24 nM
C[C@H](NC(=O)[C@H](N)Cc1ccccc1)C(=O)N[C@@H](Cc1ccccc1)C(=O)N[C@H](Cc1c[nH]c2ccccc12)C(=O)N[C@@H](CCCCN)C(=O)N[C@H](C(=O)N[C@@H](C)C(=O)N[C@H](C(N)=O)[C@@H](C)O)[C@@H](C)O [BIM 23051] (H-[dF]AF[dW]KTAT-NH2),Ki,[4],49 nM
same,Ki,[3],1000 nM
CC(C)[C@H](NC(=O)[C@H](CCCCN)NC(=O)[C@@H](Cc1c[nH]c2ccccc12)NC(=O)[C@H](Cc1ccc(O)cc1)NC(=O)[C@H](Cc1ccccc1)NC(=O)[C@H](N)Cc1ccccc1)C(=O)N[C@@H](Cc1ccccc1)C(=O)N[C@H](Cc1cccc2ccccc12)C(N)=O [BIM 23056] (H-[dF]FY[dW]KVF[d1Nal]-NH2),Ki,[1],10.8 nM
same,Ki,[2],142 nM
same,Ki,[4],16.6 nM
same,Ki,[3],1000 nM
CC(C)[C@H](NC(=O)[C@H](CCCCN)NC(=O)[C@@H](Cc1c[nH]c2ccccc12)NC(=O)[C@H](Cc1ccc(O)cc1)NC(=O)[C@H](Cc1ccc(Cl)cc1)NC(=O)[C@H](N)Cc1ccccc1)C(=O)N[C@@H](Cc1ccccc1)C(=O)N[C@H](C(N)=O)[C@@H](C)O [BIM 23057] (H-[dF][Phe(4-Cl)]Y[dW]KVFT-NH2),Ki,[4],38.5 nM
same,Ki,[3],1000 nM
CC(O)C1NC(=O)C(CCCCN)NC(=O)C(Cc2c[nH]c3ccccc23)NC(=O)C(Cc2ccc(O)cc2)NC(=O)C(NC(=O)C(N)Cc2ccccc2)CSSCC(C(=O)NCc2cccc3ccccc23)NC1=O (configuration not stated) [BIM 23060] (H-FCYWKTC-{NH(1-naphthylmethyl)}; disulfide 2-7; configuration not given here),Ki,[1],14.6 nM
same,Ki,[2],61 nM
same,Ki,[4],56 nM
same,Ki,[3],0.71 nM
CC[C@H](NC(=O)[C@@H](N)Cc1ccc(Cl)cc1)C(=O)N[C@@H](Cc1ccc(O)cc1)C(=O)N[C@H](Cc1c[nH]c2ccccc12)C(=O)N[C@@H](CCCCN)C(=O)N[C@H](C(=O)N[C@@H](C)C(=O)N[C@H](Cc1ccccc1)C(N)=O)C(C)C [BIM 23067] (H-[Phe(4-Cl)][Abu]Y[dW]KVA[dF]-NH2),Ki,[1],14.6 nM
same,Ki,[2],1000 nM
same,Ki,[4],1000 nM
same,Ki,[3],44.4 nM
C[C@@H](O)[C@H](NC(=O)[C@H](Cc1ccccc1)NC(=O)[C@@H](NC(=O)[C@H](CCCCN)NC(=O)[C@@H](Cc1c[nH]c2ccccc12)NC(=O)[C@H](Cc1ccc(O)cc1)NC(=O)[C@H](Cc1ccc(Cl)cc1)NC(=O)[C@H](N)Cc1ccccc1)[C@@H](C)O)C(N)=O [BIM 23068] (H-[dF][Phe(4-Cl)]Y[dW]KTFT-NH2),Ki,[1],1.54 nM
same,Ki,[4],9.8 nM
same,Ki,[3],1.55 nM
C[C@@H](O)[C@H](NC(=O)[C@H](Cc1ccccc1)NC(=O)[C@@H](NC(=O)[C@H](CCCCN)NC(=O)[C@@H](Cc1c[nH]c2ccccc12)NC(=O)[C@H](Cc1ccccc1)NC(=O)[C@H](Cc1ccccc1)NC(=O)[C@H](N)Cc1ccccc1)[C@@H](C)O)C(N)=O [CAS_133073-82-2] (H-[dF]FF[dW]KTFT-NH2),Ki,[2],31.3 nM
same,Ki,[4],141 nM
same,Ki,[3],13.5 nM
C[C@@H](O)[C@H](NC(=O)[C@H](Cc1ccccc1)NC(=O)[C@@H](NC(=O)[C@H](CCCCN)NC(=O)[C@@H](Cc1c[nH]c2ccccc12)NC(=O)[C@H](Cc1ccc(O)cc1)NC(=O)[C@H](Cc1ccc(Cl)cc1)NC(=O)[C@H](N)Cc1ccc2ccccc2c1)[C@@H](C)O)C(N)=O [CAS_150155-63-8] (H-[d2Nal][Phe(4-Cl)]Y[dW]KTFT-NH2),Ki,[4],1000 nM
same,Ki,[3],26.2 nM
CC(C)[C@H](NC(=O)[C@H](CCCCN)NC(=O)[C@@H](Cc1c[nH]c2ccccc12)NC(=O)[C@H](Cc1ccc(O)cc1)NC(=O)[C@H](C)NC(=O)[C@H](N)Cc1ccc(Cl)cc1)C(=O)N[C@@H](C)C(=O)N[C@@H](Cc1ccc2ccccc2c1)C(N)=O [CAS_150155-67-2] (H-[dPhe(4-Cl)]AY[dW]KVA[2Nal]-NH2),Ki,[4],1000 nM
same,Ki,[3],55.5 nM
CC(C)[C@H](NC(=O)[C@H](CCCCN)NC(=O)[C@@H](Cc1c[nH]c2ccccc12)NC(=O)[C@H](Cc1ccc(O)cc1)NC(=O)[C@H](C)NC(=O)[C@H](N)Cc1ccc2ccccc2c1)C(=O)N[C@@H](C)C(=O)N[C@H](C(N)=O)[C@@H](C)O [D-Nal-Ala-Tyr-D-Trp-Lys-Val-Ala-Thr-NH2] (H-[d2Nal]AY[dW]KVAT-NH2),Ki,[1],13.1 nM
same,Ki,[4],1000 nM
same,Ki,[3],5.9 nM
CC[C@@H]1NC(=O)[C@H](CCCCN)NC(=O)[C@@H](Cc2c[nH]c3ccccc23)NC(=O)[C@H](Cc2ccc(O)cc2)NC(=O)[C@@H](NC(=O)[C@H](N)Cc2ccccc2)CSSC[C@@H](C(=O)N[C@H](C(N)=O)[C@@H](C)O)NC1=O [D-Phe-L-Cys(1)-L-Tyr-D-Trp-L-Lys-L-Abu-L-Cys(1)-L-Thr-NH2],Ki,[1],8.2 nM
same,Ki,[4],1000 nM
CC(C)[C@H](NC(=O)[C@H](CCCCN)NC(=O)[C@@H](Cc1c[nH]c2ccccc12)NC(=O)[C@H](Cc1ccc(O)cc1)NC(=O)[C@H](Cc1ccccc1)NC(=O)[C@H](N)Cc1ccccc1)C(=O)N[C@@H](Cc1ccccc1)C(=O)N[C@H](Cc1ccccc1)C(N)=O [D-Phe-Phe-Tyr-D-Trp-Lys-Val-Phe-D-Phe-NH2] (H-[dF]FY[dW]KVF[dF]-NH2),Ki,[4],500 nM
same,Ki,[3],1000 nM
CC(O)C1NC(=O)C(CCCCN)NC(=O)C(Cc2c[nH]c3ccccc23)NC(=O)C(Cc2ccccc2)NC(=O)C(NC(=O)C(N)Cc2ccccc2)CSSCC(C(=O)NCc2cccc3ccccc23)NC1=O (configuration not stated) [EC5-21] (H-FCFWKTC-{NH(1-naphthylmethyl)}; disulfide 2-7; configuration not given here),Ki,[1],69 nM
same,Ki,[4],207 nM
same,Ki,[3],0.028 nM
"CC(C)[C@H](NC(=O)[C@H](CCCCN)NC(=O)[C@@H](Cc1c[nH]c2ccccc12)NC(=O)[C@H](Cc1ccc(O)cc1)NC(=O)[C@H](C)NC(=O)[C@H](N)Cc1ccccc1)C(=O)N[C@@H](C)C(=O)N[C@@H](Cc1ccc2ccccc2c1)C(N)=O [L-Alaninamide,D-phenylalanyl-L-alanyl-L-tyrosyl-D-tryptophyl-L-lysyl-L-valyl-L-alanyl-3-(2-naphthalenyl)-(9CI)] (H-[dF]AY[dW]KVA[2Nal]-NH2)",Ki,[4],1000 nM
same,Ki,[3],8.3 nM
